Earlier results as cited in patent EP2151445B1, “Process for the preparation of bidentate Schiff base ruthenium catalysts containing a salicylaldimine-type ligand” (Rimtec Corporation, priority 2008, dated 2010).

details: in water

pKb, about 3.69:
O=C([O-])[O-].[Cu+2] [CuCO3]
O=C([O-])[O-].[K+].[K+] [K2CO3]
O=C([O-])[O-].[Li+].[Li+] [Li2CO3]
O=C([O-])[O-].[Na+].[Na+] [Na2CO3]
